For series [1] the following is noted: symmetric NRFB, cited from earlier work.
The nature of series [2]: Charging/discharging, asymmetric H-cell, anion exchange membrane separator. The method, then:
Complex 2b was also tested as an analyte in an asymmetric cell configuration because this allowed us to achieve a cell design where up to four electrons are stored during each charge and discharge cycle. Using an AEM as separator, potentials and currents were initially chosen to maximize the energy density of the cell: storing 4 electrons in the battery. Over 10 cycles and 45 h, a Coulombic efficiency of 98% was observed (FIGS. 17A-C). […] An asymmetric cell with 2b functioning as a four-electron analyte could be revisited as AEM technology is refined.
Charge-discharge studies were performed inside of a glovebox under an inert atmosphere using a CH Instruments Electrochemical Analyzer Model 1400. The custom H-cell was designed by Adams and Chittenden (FIGS. 21A-B and 22) with compartments separated by an AMI-7001S Anion exchange membrane (Membrane International Inc.) or glass frit. If a membrane was used, it was soaked in 0.5 M nBu4NBF4MeCN electrolyte solution for 48 h prior to use. […] In the asymmetric studies, the counter compartment contained only 3.5 mL 0.5 M nBu4NBF4MeCN electrolyte solution, and an isomolded graphite rod counter electrode. […]

Series [3] in a line: Cyclic voltammetry: redox potentials, diffusion coefficients, electron-transfer rate constants. Type of series: physicochemical.
Series [4] is described as follows: Working electrode screen, extended cycling. The settings on record: GC electrodes, 100 cycles. An excerpt:
Potential working electrodes for the NRFB cell tests were also screened. GC, reticulated vitreous carbon (RVC, 20, 80 and 100 PPI), graphite rods, and carbon felt which are all commonly employed as working electrodes in NRFB applications were examined.

A short description of series [5]: Cyclic voltammetry: redox potentials, diffusion coefficients, electron-transfer rate constants. In kind it is physicochemical. Particulars: for D0: calculated using eq 2 (Randles-Sevcik); for D0 / k0: GC electrode; for k0: calculated using eq 4 (Nicholson method). The method, then:
These redox events correspond to the 2b^+/2b couple at +0.08 V, the 2b/2b^− couple at −0.20 V, the 2b^−/2b^2− couple at −0.90 V, and the 2b^2−/2b^3− couple at −1.38 V vs SCE.
The mass transport and electrokinetics of 2b were also evaluated because a RFB analyte must have fast diffusion kinetics (D) and heterogeneous electron-transfer rate (k0) to have a high rate capability. Roughly, k0 of 10^−5 cm/s is considered a minimum requirement, and this minimum requirement is met by most of the recently studied NRFB analytes. The rate is also dependent on the electrode material, and is generally orders of magnitude higher when using Hg, Pt, or Au electrodes. For this reason, kinetic parameters were probed using a glass carbon (GC) button electrode. CV's were recorded of 2b at varying scan rates, and the D values were determined by plotting the current density versus the square root of the scan rate (FIGS. 6A-C). From the slope of the linear fit of this line and the Randles-Sevcik equation (see equations below), D for each redox couple was obtained (eq. 2). Plots of the inverse of the square root of the scan rate versus the transfer parameter (ψ), extracted from the peak to peak separation (ΔEp), were also constructed, so that k0 could be calculated using the Nicholson method (TABLE 5, eq 3-4). For each redox couple D is on the order of 10^−6 cm^2/s, and k0 is on the order of 10^−3 cm/s (TABLE 5).
All potentials are referenced to the SCE couple, and ferrocene was used as an external standard where the E/of ferrocene/ferrocenium is +0.40 V vs. SCE in 0.1 M Bu4NPF6MeCN. Bu4NPF6 was recrystallized from ethanol and placed under vacuum for 72 hours before electrolyte solutions were made. Electrolyte solutions were stored over 3 Å molecular sieves for at least 48 hours before use. Sieves were activated by heating under vacuum at 270° C. for at least 72 hours. UV-Vis spectra were obtained using a 1 cm cuvette using an Agilent 8453 UV-vis spectrophotometer.
The diffusion coefficients for each redox couple were determined by first plotting CV's of 2b at varying scan rates (0.2-8 V/s) (FIG. 10). The diffusion coefficients were then determined from the slope of the peak current density (jp) versus the square root of the scan rate (υ^1/2):
[…], transfer parameter (ψ) was calculated by obtaining the peak to peak separation of each redox couple (ΔEp), at varying scan rates (0.2-8 V/s) (FIG. 10):
[formula] The electron transfer rate constant (k0) was then extracted from the slope of a plot of versus υ^1/2 (FIG. 10):
[formula] where n is the number of electrons transferred, F is the Faraday constant (96485 Cmol^−1), D is the averaged diffusion coefficient for the oxidation and reduction reaction (DO and DR) (cm^2/s), υ is the scan rate (V/s), R is the ideal gas constant (8.314 J/mol-K) and T is the temperature (K). Calculation 4.

Series [6] can be described thus: Charging/discharging, symmetric NRFB H-cell, glass frit separator. Particulars: after three weeks of charging/discharging. The method, then: Complex 2b was tested in both symmetric and asymmetric NRFB configurations and in both cases, an anion exchange membrane (AEM), and a glass frit as separator between the working electrode and counter electrode compartments were trialed. […] A current of 0.2 mA for the charge and 0.2 mA for the discharge were chosen as described below. Two consecutive plateaus are observed for each charging and discharging process, indicative of two electron transfer processes (FIGS. 12A-B and 13).
The first plateau at −0.97 V is determined by the oxidation of 2b^− to 2b in the cathodic compartment, and the concurrent reduction of 2b^− to 2b^2− in the anodic compartment. The second plateau at −0.21 V is determined by the oxidation of 2b to 2b^+ in the cathodic compartment, with concurrent reduction of 2b^2− to 2b^3− in the anodic compartment. Upon discharge, the reduction of 2b^+ to 2b and 2b to 2b^− in the cathodic compartment results in a small potential drop, with discharging plateaus of −0.98 and −0.24 V, respectively.
Charge-discharge studies were performed inside of a glovebox under an inert atmosphere using a CH Instruments Electrochemical Analyzer Model 1400. The custom H-cell was designed by Adams and Chittenden (FIGS. 21A-B and 22) with compartments separated by an AMI-7001S Anion exchange membrane (Membrane International Inc.) or glass frit. […]

Where two headings read alike, the source gives them in different places.

As to `C1=Cc2nc1c(-c1ccccc1)c1ccc([nH]1)c(-c1ccccc1)c1nc(c(-c3ccccc3)c3ccc([nH]3)c2-c2ccccc2)C=C1` [H2TPP], the Cactive in series [1] (solvent CH2Cl2) is 10 mM.
As for [(I2P^−)2Al][OTf] [2b], the “degradation of the analyte” value in series [2] (asymmetric NRFB configuration, multiple cycles, separator not stated) is listed as “no degradation of the analyte”. Besides, the “decomposition of the analyte” value in series [2] (asymmetric cell, AEM, after 45 h) was “Decomposition of the analyte was observed”. Also, in series [3] (CV, 0.5 M Bu4NBF4 MeCN), the “redox potential, 2b/2b^− couple” value was −0.20 V vs SCE; the “redox potential, 2b^2−/2b^3− couple” value is −1.38 V vs SCE; the “redox potential, 2b^+/2b couple” value was “+0.08 V vs SCE”; the “redox potential, 2b^−/2b^2− couple” value was −0.90 V vs SCE. The same compound yielded an E1/2 in series [3] (couple 2b^2+/1+) of 0.06 V vs SCE. The “stability of analyte remaining in solution” value in series [4] is recorded as “stable to extended cycling in solution”. In addition, in series [5] (couple 2b^0/1−), the E1/2 is on record as −1.08 V vs SCE, the D0 is listed as 6.3 (5.5) 10^−6 cm^2/s and the k0 is reported as 13 ± 2.7 × 10^−3 cm/s. In addition, in series [5] (couple 2b^1+/0), the E1/2 is −0.30 V vs SCE, the D0 is 5.1 (4.9) 10^−6 cm^2/s and the k0 is 8.9 ± 1.2 × 10^−3 cm/s. Also, in series [5] (couple 2b^1−/2−), the E1/2 is reported as −1.51 V vs SCE, the D0 is given as 9.9 (4.6) 10^−6 cm^2/s and the k0 is on record as 10 ± 2.1 × 10^−3 cm/s. Besides, in series [5] (couple 2b^2+/1+), the D0 was 4.7 (6.8) 10^−6 cm^2/s and the k0 is on record as 8.1 ± 1.7 × 10^−3 cm/s. For the same compound, in series [5] (each redox couple), the “D, order of magnitude” value is on record as ~10^−6 cm^2/s and the “k0, order of magnitude” value is given as ~10^−3 cm/s. Further, the degradation of analyte result in series [6] is listed as “Partial degradation”.
For [bpy(COOMe)2]3Cr, the Cactive in series [1] (solvent MeCN) is 210 mM.
As to phthalocyanine Mn-nitride [PcMnN], in series [1] (solvent MeCN), the Cactive is 1 mM.
For the compound `COCCOCCOCCNc1ccc(NCCOCCOCCOC)c2c1C(=O)c1ccccc1C2=O` [(Me-TEG)2DAAQ], the Cactive in series [1] (solvent DME) is 1000 mM.

The values above are taken from US12665203B2, “Organo-metallic analytes for nonaqueous redox flow batteries” (The Regents of the University of California, priority 2020, dated 2026).
